# Test results from patent US10912741B2, “Prevention of liver cancer with safranal-based formulations” (United Arab Emirates University, priority 2019, dated 2021).
# How the values were obtained:
# [1] = tested on: foci of altered hepatocytes (FAH); assay: Histopathology (H&E) of liver, foci of altered hepatocytes; format: in vivo, albino Wistar rats
# Experimental: (§1) The experimental hepatocarcinogenesis model was developed according to a protocol by Espandiaria et al. that was adapted for our purposes. To initiate and promote hepatocarcinogenesis, diethylnitrosamine (DEN) and 2-acetylaminofluorene (2-AAF) were used, respectively. For hepatocarcinogenesis initiation in this model, a single DEN dose (200 mg/kg b.wt.) dissolved in saline was injected intraperitoneally. After initiation, all rats underwent one period of 5-days fasting, as mitotic proliferative stimuli. To promote hepatocarcinogenesis, 2-acetylaminofluorene (2-AAF) was introduced in the form of six daily intragastric doses (30 mg/kg in 1% Tween 80); two weeks after DEN treatment.
# Safranal at doses of 25 mg/kg by weight (b.wt.) and 50 mg/kg b.wt, was administrated orally to rats. These doses have been reported to suppress chemically-induced oxidative damage in rats. A total of 40 adult male albino Wistar rats were randomly divided into […] (n=8) and were subjected to different treatments. Group 1 (control) was orally administered distilled water (5 ml/kg b.wt.) throughout the experimental duration and were injected with a single dose of saline. Group 2 (Safranal only) was subjected to a safranal dose (50 mg/kg b.wt.) through oral administration for the duration of the experimental period. […]
# [2] = tested on: p-IkB in HepG2 cells; assay: Western blotting, p-IkB; format: cell-based, human; conditions: starting at 24 hours of safranal treatment (1 mM)
# Experimental: HepG2, were cultured in RPMI 1640 medium (HyClone, USA) and 1% of 100 U/ml penicillin and 100 ug/ml streptomycin (Sigma, USA) supplemented with 10% fetal bovine serum (Sigma, USA) at 37° C. in a humidified 5% CO2 atmosphere. Cells were sub-cultured each 4-6 days using trypsin 0.25% (Hyclone, USA).
# In 100 mm plates, HepG2 cells were seeded at a density of 2×10^4 in complete growth medium. Cells were allowed to attach for 24 hours, after which complete growth medium was replaced by serum-free medium. Cells were treated with safranal at a concentration of 1 mM (20 mM stock). Plates were incubated for 6, 12, 24, and 48 hours in a humidified 5% CO2 atmosphere at 37° C. At indicated times, 1 mL of cell supernatant was obtained from each plate and was stored at −80° C. for further analysis by ELISA. After which whole cell lysates were prepared. Bicinchoninic acid (BCA) assay (Sigma-Aldrich, USA) was used to determine concentration of protein. Thirty μg of protein were loaded onto 10% SDS polyacrylamide electrophoresis gels. The gels were transferred onto nitrocellulose membranes prior to immunodetection processing with anti-p-IkB-alpha, anti-H2AX (Cell Signaling Technology, USA), and with anti-rabbit IgG peroxidase conjugated secondary antibodies. […]
# [3] = tested on: p-TNF-R1; assay: Immunohistochemical staining of liver sections, p-TNF-R1 positive cells; format: in vivo, albino Wistar rats
# Experimental: as §1
# Safranal at doses of 25 mg/kg by weight (b.wt.) and 50 mg/kg b.wt, was administrated orally to rats. These doses have been reported to suppress chemically-induced oxidative damage in rats. A total of 40 adult male albino Wistar rats were randomly divided into […] (n=8) and were subjected to different treatments. […]
# For immunohistochemical staining, mounted sections were immersed in sodium citrate buffer (0.1 M, pH 6) and placed in a water bath for 15 minutes to unmask antigen epitopes. […] Ten fields were randomly selected to quantify positive cells, in individual samples (400×). […]
smiles,measurement,setting,value
"CC1=C(C=O)C(C)(C)CC=C1 [Safranal, 2,6,6-trimethylcyclohexa-1,3-diene-1-carbaldehyde]",number and size of hepatocellular nodules (FAH),"[1]; protective groups, DEN-2-AAF rats + low/high doses of safranal (25/50 mg/kg b.wt.)",remarkably decrease in number and size
same,hepatocellular nodules (FAH) in liver sections,"[1]; treatment with safranal alone (group 2, 50 mg/kg b.wt.)",abolished such hepatocellular nodules almost completely
same,level of p-IkB protein,[2],transiently decreased
same,number of p-TNF-R1 positive cells,"[3]; low/high doses of safranal, DEN-2-AAF-treated animals (groups 4-5), vs HCC group",highly significant decrease
same,number of p-TNF-R1 positive cells,"[3]; safranal alone, compared to control group",change of no significance
